Legend:
TRα = molecular target: T1, TRα (Homo sapiens, UniProt P10827); assay: LanthaScreen TR-FRET Thyroid Receptor alfa Coactivator Assay (in vitro binding activity); details: TR alfa-LBD
T1 construct: 5 μL of 4×TR beta/alfa-LBD; purchased Invitrogen PV4687
Method: (§1) 2. Detection of the Binding Activity of the Compound of the Present Invention to TRα or TRβ In Vitro
(§2) Test Materials • LanthaScreen TR-FRET Thyroid Receptor beta Coactivator Assay kit was purchased from Invitrogen, Cat. No. PV4686; • LanthaScreen TR-FRET Thyroid Receptor alfa Coactivator Assay kit was purchased from Invitrogen, Cat. No. PV4687.
(§3) The method was experimented with LanthaScreen TR-FRET Thyroid Receptor beta/alfa Coactivator Assay kit. The test compound was dissolved in DMSO and diluted 3 times to a total of 10 concentrations, and then diluted with TR-FRET Coregulator Buffer C in the kit to form a solution containing 2% DMSO, 10 μL of the solution containing 2% DMSO was taken into a 384-well plate, then 5 μL of 4×TR beta/alfa-LBD, 5 μL of a mixture containing 0.4 μM fluorescein-SRC2-2 and 8 nM Tb anti-GST antibody were added into each well, mixed thoroughly, and incubated at room temperature for 1 h in the dark. After 1 h, BMG LABTECH's PHERAstar FSX microplate reader was used to read the fluorescence value (RFU) at […]. The TR-FRET ratio was calculated by dividing the emission signal at 520 nm by the emission signal at 495 nm. Graph Pad Prism 5 software was used to draw the curve and calculate the EC50 value. The in vitro binding activity test results of some of the compounds of the examples of the present invention are shown in Table 1 below.

TRβ = molecular target: T2, TRβ (Homo sapiens, UniProt P10828); assay: LanthaScreen TR-FRET Thyroid Receptor beta Coactivator Assay (in vitro binding activity); details: TR beta-LBD
T2 construct: 5 μL of 4×TR beta/alfa-LBD; purchased Invitrogen PV4686
T2 sequence (P10828 217-461 limits assumed): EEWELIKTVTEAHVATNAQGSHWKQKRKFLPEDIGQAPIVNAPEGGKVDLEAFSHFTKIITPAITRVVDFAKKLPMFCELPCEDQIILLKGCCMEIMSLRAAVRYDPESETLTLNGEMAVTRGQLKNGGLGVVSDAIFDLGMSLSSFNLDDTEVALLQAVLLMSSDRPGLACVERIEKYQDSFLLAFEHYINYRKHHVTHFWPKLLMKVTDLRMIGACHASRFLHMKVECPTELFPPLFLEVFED
Method: as §1, §2, §3

T1 sequence (P10827 163-410 isoform P10827-2 limits assumed, other chains not shown): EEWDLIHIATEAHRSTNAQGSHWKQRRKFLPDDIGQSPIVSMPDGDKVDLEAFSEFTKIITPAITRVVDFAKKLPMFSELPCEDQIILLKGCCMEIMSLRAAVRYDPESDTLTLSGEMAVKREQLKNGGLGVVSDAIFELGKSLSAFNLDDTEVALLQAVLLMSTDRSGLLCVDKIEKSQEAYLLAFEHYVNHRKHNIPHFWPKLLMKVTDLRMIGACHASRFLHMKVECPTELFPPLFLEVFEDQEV

| SMILES | EC50 (TRα) | EC50 (TRβ) |
| --- | --- | --- |
| Cc1ccc(N2CCc3cc(Oc4c(Cl)cc(-n5nc(C#N)c(=O)[nH]c5=O)cc4Cl)ccc3C2=O)cc1 [Example 27, 2-(3,5-dichloro-4-((1-oxo-2-(p-tolyl)-1,2,3,4-tetrahydroisoquinolin-6-yl)oxy)phenyl)-3,5-dioxo-2,3,4,5-tetrahydro-1,2,4-triazine-6-carbonitrile] | > 100 µM | 0.14 µM |
| N#Cc1nn(-c2cc(Cl)c(Oc3ccc4c(c3)CCN(c3ccc(F)cc3)C4=O)c(Cl)c2)c(=O)[nH]c1=O [Example 28g] | > 100 µM | 0.128 µM |
| O=C1c2ccc(Oc3c(Cl)cc(-n4ncc(=O)[nH]c4=O)cc3Cl)cc2CCN1Cc1ccc(F)c(F)c1 [Example 30, 2-(3,5-dichloro-4-((2-(3,4-difluorobenzyl)-1-oxo-1,2,3,4-tetrahydroisoquinolin-6-yl)oxy)phenyl)-1,2,4-triazine-3,5(2H,4H)-dione] | 0.093 µM | 0.0062 µM |
| N#Cc1nn(-c2cc(Cl)c(Oc3ccc4c(c3)CCN(Cc3ccc(F)c(F)c3)C4=O)c(Cl)c2)c(=O)[nH]c1=O [Example 30d, 2-(3,5-dichloro-4-((2-(3,4-difluorobenzyl)-1-oxo-1,2,3,4-tetrahydroisoquinolin-6-yl)oxy)phenyl)-3,5-dioxo-2,3,4,5-tetrahydro-1,2,4-triazine-6-carbonitrile] | > 100 µM | 0.065 µM |
| O=C1c2ccc(Oc3c(Cl)cc(-n4ncc(=O)[nH]c4=O)cc3Cl)cc2CCN1Cc1cccc(F)c1 [Example 31, 2-(3,5-dichloro-4-((2-(3-fluorobenzyl)-1-oxo-1,2,3,4-tetrahydroisoquinolin-6-yl)oxy)phenyl)-1,2,4-triazine-3,5(2H,4H)-dione] | 0.107 µM | < 0.0046 µM |
| N#Cc1nn(-c2cc(Cl)c(Oc3ccc4c(c3)CCN(Cc3cccc(F)c3)C4=O)c(Cl)c2)c(=O)[nH]c1=O [Example 31d, 2-(3,5-dichloro-4-((2-(3-fluorobenzyl)-1-oxo-1,2,3,4-tetrahydroisoquinolin-6-yl)oxy)phenyl)-3,5-dioxo-2,3,4,5-tetrahydro-1,2,4-triazine-6-carbonitrile] | > 100 µM | 0.034 µM |
| O=C1c2ccc(Oc3c(Cl)cc(-n4ncc(=O)[nH]c4=O)cc3Cl)cc2CCN1Cc1cc(F)cc(F)c1 [Example 32, 2-(3,5-dichloro-4-((2-(3,5-difluorobenzyl)-1-oxo-1,2,3,4-tetrahydroisoquinolin-6-yl)oxy)phenyl)-1,2,4-triazine-3,5(2H,4H)-dione] | 0.181 µM | 0.0046 µM |
| N#Cc1nn(-c2cc(Cl)c(Oc3ccc4c(c3)CCN(Cc3cc(F)cc(F)c3)C4=O)c(Cl)c2)c(=O)[nH]c1=O [Example 32d, 2-(3,5-Dichloro-4-((2-(3,5-difluorobenzyl)-1-oxo-1,2,3,4-tetrahydroisoquinolin-6-yl)oxy)phenyl)-3,5-dioxo-2,3,4,5-tetrahydro-1,2,4-triazine-6-carbonitrile] | > 100 µM | 0.054 µM |
| O=C1c2ccc(Oc3c(Cl)cc(-n4ncc(=O)[nH]c4=O)cc3Cl)cc2CCN1Cc1ccccc1F [Example 33, 2-(3,5-dichloro-4-((2-(2-fluorobenzyl)-1-oxo-1,2,3,4-tetrahydroisoquinolin-6-yl)oxy)phenyl)-1,2,4-triazine-3,5(2H,4H)-dione] | 0.156 µM | 0.017 µM |
| N#Cc1nn(-c2cc(Cl)c(Oc3ccc4c(c3)CCN(Cc3ccccc3F)C4=O)c(Cl)c2)c(=O)[nH]c1=O [Example 33d, 2-(3,5-Dichloro-4-((2-(2-fluorobenzyl)-1-oxo-1,2,3,4-tetrahydroisoquinolin-6-yl)oxy)phenyl)-3,5-dioxo-2,3,4,5-tetrahydro-1,2,4-triazine-6-carbonitrile] | > 100 µM | 0.11 µM |
| O=C1c2ccc(Oc3c(Cl)cc(-n4ncc(=O)[nH]c4=O)cc3Cl)cc2CCN1Cc1ccc(F)c(Cl)c1 [Example 35, 2-(3,5-dichloro-4-((2-(3-chloro-4-fluorobenzyl)-1-oxo-1,2,3,4-tetrahydroisoquinolin-6-yl)oxy)phenyl)-1,2,4-triazine-3,5(2H,4H)-dione] | 0.092 µM | < 0.0046 µM |
| N#Cc1nn(-c2cc(Cl)c(Oc3ccc4c(c3)CCN(Cc3ccc(F)c(Cl)c3)C4=O)c(Cl)c2)c(=O)[nH]c1=O [Example 35d, 2-(3,5-dichloro-4-((2-(3-chloro-4-fluorobenzyl)-1-oxo-1,2,3,4-tetrahydroisoquinolin-6-yl)oxy)phenyl)-3,5-dioxo-2,3,4,5-tetrahydro-1,2,4-triazine-6-carbonitrile] | > 100 µM | 0.08 µM |
| COc1cccc(CN2CCc3cc(Oc4c(Cl)cc(-n5ncc(=O)[nH]c5=O)cc4Cl)ccc3C2=O)c1 [Example 36, 2-(3,5-dichloro-4-((2-(3-methoxybenzyl)-1-oxo-1,2,3,4-tetrahydroisoquinolin-6-yl)oxy)phenyl)-1,2,4-triazine-3,5(2H,4H)-dione] | 0.079 µM | < 0.0046 µM |
| N#Cc1nn(-c2cc(Cl)c(Oc3ccc4c(c3)CCN(CC3CC3)C4=O)c(Cl)c2)c(=O)[nH]c1=O [Example 38, 2-(3,5-dichloro-4-((2-(cyclopropylmethyl)-1-oxo-1,2,3,4-tetrahydroisoquinolin-6-yl)oxy)phenyl)-3,5-dioxo-2,3,4,5-tetrahydro-1,2,4-triazine-6-carbonitrile] | < 0.046 µM | < 0.0046 µM |
| N#Cc1nn(-c2cc(Cl)c(Oc3ccc4c(c3)CCN(CO)C4=O)c(Cl)c2)c(=O)[nH]c1=O [Example 39, 2-(3,5-dichloro-4-((2-(hydroxymethyl)-1-oxo-1,2,3,4-tetrahydroisoquinolin-6-yl)oxy)phenyl)-3,5-dioxo-2,3,4,5-tetrahydro-1,2,4-triazine-6-carbonitrile] | > 100 µM | 0.472 µM |
| Cc1ccc(F)cc1CN1CCc2cc(Oc3c(Cl)cc(-n4ncc(=O)[nH]c4=O)cc3Cl)ccc2C1=O [Example 40, 2-(3,5-dichloro-4-((2-(5-fluoro-2-methylbenzyl)-1-oxo-1,2,3,4-tetrahydroisoquinolin-6-yl)oxy)phenyl)-1,2,4-triazine-3,5(2H,4H)-dione] | 0.179 µM | < 0.0046 µM |
| Cc1ccc(F)cc1CN1CCc2cc(Oc3c(Cl)cc(-n4nc(C#N)c(=O)[nH]c4=O)cc3Cl)ccc2C1=O [Example 40d, 2-(3,5-dichloro-4-((2-(5-fluoro-2-methylbenzyl)-1-oxo-1,2,3,4-tetrahydroisoquinolin-6-yl)oxy)phenyl)-3,5-dioxo-2,3,4,5-tetrahydro-1,2,4-triazine-6-carbonitrile] | > 100 µM | 0.035 µM |
| O=C1c2ccc(Oc3c(Cl)cc(-n4ncc(=O)[nH]c4=O)cc3Cl)cc2CCN1c1ccccn1 [Example 47] | 0.161 µM | 0.039 µM |
| N#Cc1nn(-c2cc(Cl)c(Oc3ccc4c(c3)CCN(c3ccccn3)C4=O)c(Cl)c2)c(=O)[nH]c1=O [Example 47f, 2-(3,5-dichloro-4-((1-oxo-2-(pyridin-2-yl)-1,2,3,4-tetrahydroisoquinolin-6-yl)oxy)phenyl)-3,5-dioxo-2,3,4,5-tetrahydro-1,2,4-triazine-6-carbonitrile] | > 100 µM | 0.214 µM |
| O=C1c2ccc(Oc3c(Cl)cc(-n4ncc(=O)[nH]c4=O)cc3Cl)cc2CCN1c1ccncc1 [Example 48, 2-(3,5-dichloro-4-((1-oxo-2-(pyridin-4-yl)-1,2,3,4-tetrahydroisoquinolin-6-yl)oxy)phenyl)-1,2,4-triazine-3,5(2H,4H)-dione] | 0.558 µM | 0.065 µM |
| N#Cc1nn(-c2cc(Cl)c(Oc3ccc4c(c3)CCN(c3cccnc3)C4=O)c(Cl)c2)c(=O)[nH]c1=O [Example 49f, 2-(3,5-dichloro-4-((1-oxo-2-(pyridin-3-yl)-1,2,3,4-tetrahydroisoquinolin-6-yl)oxy)phenyl)-3,5-dioxo-2,3,4,5-tetrahydro-1,2,4-triazine-6-carbonitrile] | > 100 µM | 0.769 µM |
| O=C1c2ccc(Oc3c(Cl)cc(-n4ncc(=O)[nH]c4=O)cc3Cl)cc2CCN1c1ncccn1 [Example 50, 2-(3,5-dichloro-4-((1-oxo-2-(pyrimidin-2-yl)-1,2,3,4-tetrahydroisoquinolin-6-yl)oxy)phenyl)-1,2,4-triazine-3,5(2H,4H)-dione] | 0.274 µM | 0.12 µM |
| N#Cc1nn(-c2cc(Cl)c(Oc3ccc4c(c3)CCN(c3ncccn3)C4=O)c(Cl)c2)c(=O)[nH]c1=O [Example 50f, 2-(3,5-dichloro-4-((1-oxo-2-(pyrimidin-2-yl)-1,2,3,4-tetrahydroisoquinolin-6-yl)oxy)phenyl)-3,5-dioxo-2,3,4,5-tetrahydro-1,2,4-triazine-6-carbonitrile] | 2.62 µM | 0.213 µM |

Reference: patent US20240025875A1, “A COMPOUND AS A THYROID HORMONE BETA RECEPTOR AGONIST AND USE THEREOF” (SUNSHINE LAKE PHARMA CO., LTD., priority 2020, published 2024)
